According to patent publication US11352322B2, “Cyclopropyl-amide compounds as dual LSD1/HDAC inhibitors” (Jubilant Epicore LLC, priority 2016, dated 2022):
Where a name gives a salt, the structure may show the parent alone. Read-outs that look alike come from different tables or passages of the source.

Legend:
[1] = Metabolic stability in liver microsomes, HLM; details: 1 μM, NADPH
Method: (§1) The microsomal suspension was prepared by adding liver microsomes to 100 mM potassium phosphate buffer (pH7.4) to give a final protein concentration of 0.5 mg/mL. The stock solution of NCE (10 mM in DMSO) was added to the microsomes to provide a final concentration of 1 μM. […] Samples were vortexed and centrifuged at 5,000 rpm for 10 min to remove proteins. Supernatant were analyzed on LC-MS/MS.

[2] = Metabolic stability in liver microsomes, MLM; details: 1 μM, NADPH
Method: as §1

[3] = tested on: MM1S; assay: Anticancer activity: Alamar Blue assay, MM1S; assay type: cell-based; details: Homo sapiens, MM1.S, read-out: MM1S EC50

Which results are given for O=C(/C=C/c1ccc(CNC2CC2c2ccc(C3CC3)cc2)cc1)NO (stereo not drawn) [Example 1, (E)-3(4(((2(4cyclopropylphenyl)cyclopropl)amino)methyl)phenyl)-N-hydroxyacrylamide]?
Metabolic stability HLM % remaining in 30 min [1]: 21%; Metabolic stability MLM % remaining in 30 min [2]: 5%

With O=C(/C=C/c1ccc(CNC2CC2c2ccc(OCc3ccc(F)cc3)cc2)cc1)NO (stereo not drawn) [Example 3, (E)-3-(4-(((2-(4-((4-fluorobenzyl)oxy)phenyl)cyclopropyl)amino)methyl)phenyl)-N-hydroxyacrylamide TFA Salt] as the molecule, how does the “Metabolic stability HLM % remaining in 30 min” value [1] read?
The value was 65%.

What about the EC50 [3] of the same molecule?
Its EC50 is 0.104 µM.

What about the “Metabolic stability MLM % remaining in 30 min” value [2] of the same molecule?
The value was under 5%.

What does the source list for O=C(CCCCCNC1CC1c1ccccc1)NO (stereo not drawn) [Example 29, N-hydroxy-6-((2-phenylcyclopropyl)amino)hexanamide TFA Salt]?
Metabolic stability HLM % remaining in 30 min [1]: > 95%; Metabolic stability MLM % remaining in 30 min [2]: 90%

With Nc1ccccc1NC(=O)c1ccc(CCCN2CCC(CNC3CC3c3ccc(C(=O)N4CCCCC4)cc3)CC2)cc1 (stereo not drawn) [Example 125, N-(2-aminophenyl)-4-(3-(4-(((2-(4-(piperidine-1-carbonyl)phenyl)cyclopropyl)amino)methyl)piperidin-1-yl)propyl)benzamide TFA Salt] as the molecule, how does the “Metabolic stability HLM % remaining in 30 min” value [1] read?
Its value is 34%.

And the “Metabolic stability MLM % remaining in 30 min” value [2]?
Its value is 49%.

For O=C(NO)c1ccc(CN2CCC(CNC3CC3c3ccccc3)CC2)cc1 (stereo not drawn) [Example 36, N-Hydroxy-4-{4-[(2-phenyl-cyclopropylamino)-methyl]-piperidin-1-ylmethyl}-benzamide TFA Salt], which “Metabolic stability HLM % remaining in 30 min” value [1] is on record?
Its value is 63%.

And the “Metabolic stability MLM % remaining in 30 min” value [2]?
Its value is 53%.

With O=C(CCCCCCNC(=O)c1ccc(CNC2CC2c2ccccc2)cc1)NO (stereo not drawn) [Example 31, N-(6-Hydroxycarbamoyl-hexyl)-4-[(2-phenyl-cyclopropylamino)-methyl]-benzamide TFA Salt] as the molecule, how does the “Metabolic stability HLM % remaining in 30 min” value [1] read?
The value was 39%.

What about the “Metabolic stability MLM % remaining in 30 min” value [2] of the same molecule?
The value was 18%.

With O=C(NO)c1ccc(CCCN2CCc3cc(CNC4CC4c4ccc(F)cc4)ccc3C2)cc1 (stereo not drawn) [Example 78, 4-(3-(6-(((2-(4-fluorophenyl)cyclopropyl)amino)methyl)-3,4-dihydroisoquinolin-2(1H)-yl)propyl)-N-hydroxybenzamide TFA Salt] as the molecule, how does the “Metabolic stability HLM % remaining in 30 min” value [1] read?
Its value is 72%.

What about the “Metabolic stability MLM % remaining in 30 min” value [2] of the same molecule?
Its value is 32%.

For O=C(NO)c1cccc(CNC2CC2c2ccc(Br)cc2)c1 (stereo not drawn) [Example 26, 3-(((2-(4-bromophenyl)cyclopropyl)amino)methyl)-N-hydroxybenzamide TFA Salt], which “Metabolic stability HLM % remaining in 30 min” value [1] is on record?
The value was 30%.

And the “Metabolic stability MLM % remaining in 30 min” value [2]?
The value was 13%.

For Nc1ccccc1NC(=O)/C=C/c1ccc(CNC2CC2c2ccc(F)cc2)cc1 (stereo not drawn) [Example 120], which “Metabolic stability HLM % remaining in 30 min” value [1] is on record?
Its value is 27%.

And the “Metabolic stability MLM % remaining in 30 min” value [2]?
Its value is 16%.

For Nc1ccccc1NC(=O)c1ccc(CCCN2CC(CNC3CC3c3ccc(F)cc3)C2)cc1 (stereo not drawn) [Example 126, N-(2-aminophenyl)-4-(3-(3-(((2-(4-fluorophenyl)cyclopropyl)amino)methyl)azetidin-1-yl)propyl)benzamide TFA Salt], which “Metabolic stability HLM % remaining in 30 min” value [1] is on record?
Its value is 79%.

What about the “Metabolic stability MLM % remaining in 30 min” value [2] of the same molecule?
Its value is 76%.

With O=C(/C=C/c1ccc(CNC2CC2c2ccc(F)cc2)cc1)NO (stereo not drawn) [Example 2, (E)-3-(4-{[2-(4-Fluoro-phenyl)-cyclopropylamino]-methyl}-phenyl)-N-hydroxy-acrylamide TFA Salt] as the molecule, how does the “Metabolic stability HLM % remaining in 30 min” value [1] read?
Its value is 41%.

And the “Metabolic stability MLM % remaining in 30 min” value [2]?
Its value is 19%.

For Cc1noc(C)c1-c1ccc(C2CC2NCC2CN(CCCc3cccc(C(=O)NO)c3)C2)cc1 (stereo not drawn) [Example 65, 3-(3-(3-(((2-(4-(3,5-dimethylisoxazol-4-yl)phenyl)cyclopropyl)amino)methyl)azetidin-1-yl)propyl)-N-hydroxybenzamide TFA Salt], which EC50 ([3]; MM1S cells) is on record?
Its EC50 is 0.026 µM.
